From PubChem BioAssay AID1508612

Test: passive permeability, PAMPA, ADME assay (AID 1508612)
Settings: pH 7.4, 30.0 min, 50.0 µM

Compound	Papp [×10⁻⁶ cm/s]
CCCN(CCC)CCc1cccc2c1CC(=O)N2	179
Cc1ccc2c(c1)[nH]c1c(N3CCN(Cc4ccccc4)CC3)ncnc12	> 1000
CC1=C(C(=O)Nc2nncs2)C(c2nn(C)cc2Cl)N=C(Nc2nc3ccccc3o2)N1 (stereo unspecified)	> 1000
Fc1ccc(Nc2nc(-c3ccncc3)nc3ccccc23)cc1F	376
CCOc1ccc(C2c3c(oc4ccc(C)cc4c3=O)C(=O)N2CCCN(C)C)cc1 (stereo unspecified)	516
Cc1cccc(-c2csc(N3CCC(C(N)=O)CC3)n2)c1	475
O=C1CN(C(=O)CCC(=O)N2CCc3c(nc4cc(-c5ccccc5)[nH]n4c3=O)C2)c2ccccc2N1	< 1
COc1cccc(CNc2ccc(S(=O)(=O)Nc3cccc4ccccc34)cc2)c1O	< 1
CCn1c(=O)cc(OCC(=O)N2CCN(c3cccc(Cl)c3)CC2)c2ccccc21	941
CN(C)C(=O)c1cc2cnc(Nc3ccc(N4CCNCC4)cn3)nc2n1C1CCCC1	138
CC(=O)c1ccc(N2CCN(S(=O)(=O)c3ccc4c(c3)CC(=O)N4)CC2)cc1	429
O=C1CCCC2=C1C(c1[nH]ncc1Br)N=C(Nc1nc3ccccc3o1)N2 (stereo unspecified)	797
Cc1cnc(CNc2nc(-c3ccccc3Cl)nc3ccccc23)cn1	> 1000
CC1(C)CCC(c2ccc(Cl)cc2)=C(CN2CCN(c3ccc(C(=O)NS(=O)(=O)c4ccc(N[C@H](CCN5CCOCC5)CSc5ccccc5)c(S(=O)(=O)C(F)(F)F)c4)cc3)CC2)C1	1.1
Cc1cc(C)nc(NC(=S)N2CCN(c3ccc4nsnc4c3)CC2)c1	707
Cc1ccc(S(=O)(=O)Nc2ccc(Br)cc2C(=O)Nc2nc(-c3ccccc3)cs2)cc1	2.4
NC(=O)C1CCN(c2nc(-c3ccc(C(F)(F)F)cc3)cs2)CC1	292
Cc1ccc(S(=O)(=O)c2cnc(SC(C)C(=O)Nc3ccccc3)[nH]c2=O)cc1 (stereo unspecified)	1.2
COc1ncc(-c2n[nH]c3c2CC(=O)N(c2ccccc2)C3)cn1	33.5
Cc1ccc2oc(NC3=NC(c4[nH]ncc4Cl)C4=C(CCCC4=O)N3)nc2c1 (stereo unspecified)	1000
O=C1c2ccccc2-n2c1nc1ccccc1c2=O	715
CCOc1ccc(CCNC(=O)c2ccccc2)cc1OCC	580
CN(C)c1ccc(-c2csc(N3CCC(C(N)=O)CC3)n2)cc1	3.06
Nc1c(C(=O)Nc2ccc(Cl)c(C(F)(F)F)c2)sc2nc3c(cc12)N1CCC3CC1	> 1000
CCOC(=O)c1ccc(NC(=O)N2Cc3[nH]cnc3C[C@H]2c2nc(C(C)C)no2)cc1	113
CC(=O)N1CCN(c2ccc(OCc3nn(C)c(C)c3-c3cccc4c(CCCOc5cccc6ccccc56)c(C(=O)O)n(Cc5cccnc5)c34)cc2)CC1	253

Compound	Papp [×10⁻⁶ cm/s]
CCC(CC)(NC(=O)C(C)C)C(=O)N[C@@H](CCCN=C(N)N)C(=O)NC1(C(=O)NC(c2ccc(F)cc2)c2ccc(F)cc2)CCCC1	8
CCOc1ccc(CCNC(=O)c2cc3ncccc3n2Cc2cccc(C)n2)cc1OCC	491
Cc1ccnc(NC(=O)C2CC(=O)N(c3n[nH]c4cc(Br)ccc34)C2)c1 (stereo unspecified)	563
COc1ccc(-c2[nH]nc3ncc(-c4ccc(CO)cc4)nc23)cc1F	353
O=C1CCc2cc(S(=O)(=O)Nc3ccc(F)c(Cl)c3)ccc2N1	460
CCOc1ccc(NC(=O)c2ccc(F)c(S(=O)(=O)N(CC)Cc3ccccc3)c2)cc1	< 1
O=C1CCCc2cc(S(=O)(=O)Nc3cnccc3C(=O)Nc3nc(-c4ccccc4)cs3)ccc2N1	1.7
COc1ccc(Cn2c(C(=O)O)c(CNCc3cccc(OC)c3)c3ccc(C)cc32)cc1	361
COc1cc(NC(=O)c2cc(-c3ccccc3O)no2)cc(OC)c1OC	680
O=C(Nc1cncc(Cc2ccccc2)c1)c1ccc(-c2cccc([N+](=O)[O-])c2)o1	> 1000
Cc1cnc(-c2ccccc2OC(C)C)nc1NCc1ccc(-n2ccnn2)cc1	> 1000
c1ccc(Nc2nc(NCc3ccco3)c3ccccc3n2)cc1	930
Cc1ccc(-c2cc(C(=O)Nc3ccc(S(=O)(=O)Nc4ccc(C#N)cc4)cc3)c3ccccc3n2)cc1C	< 1
CCOC(=O)C1CCN(C(=O)C2(NC(=O)Nc3ccc(F)cc3F)CCCCC2)CC1	177
CC(C)N(CCCNC(=O)Nc1ccc(C(C)(C)C)cc1)C[C@H]1O[C@@H](n2ccc3c(N)ncnc32)[C@H](O)[C@@H]1O	10.7
O=C(Nc1nc(-c2ccc(F)cc2)cs1)c1ccncc1NS(=O)(=O)c1ccccc1Cl	> 1000
O=C(NCCCNc1nc(Nc2cccc(CN3CCOCC3)c2)ncc1C1CC1)C1CCC1	905
Cc1cc(F)ccc1S(=O)(=O)Nc1cnccc1C(=O)Nc1nc(-c2ccccc2)cs1	> 1000
CNc1nccc(-c2cccc3ccccc23)n1	905
CCOc1ccc(NC(=O)CSC2=Nc3ccccc3C3=NC(CC(=O)NCc4cccs4)C(=O)N23)cc1 (stereo unspecified)	25
COc1ccccc1-n1cnc2cc(C(=O)N3CCCCC3)ccc21	385
COc1ccc(-c2ccc3ncc4c(c3c2)n(-c2ccc(N3CCNCC3)c(C(F)(F)F)c2)c(=O)n4C)cn1	< 1
O=C(Nc1ncnc2sc3c(c12)CCCCC3)c1ccco1	> 1000
Cc1ccccc1C(=O)Nc1nc2c(s1)CC(C(C)(C)C)CC2 (stereo unspecified)	257
O=C1CCCC2=C1C(c1ccccc1Cl)N=C(Nc1nc3ccccc3o1)N2 (stereo unspecified)	> 1000
